Test results: patent publication US12643855B2, “Fluorogenic dimer compound, useful as a probe for detection of endogenous receptors” (UNIVERSITE DE STRASBOURG, priority 2020, dated 2026)
Blank lines part the entries; values can stand above or below the molecule they belong to.

Key:
Format in all cases: physicochemical
[1] = Absorption and fluorescence spectroscopy, DY647 dimers (Examples 2 and 3); settings: for λem, position of the emission maximum: excitation 600 nm; for Fluorescence turn-on: ratio of quantum yields in EtOH to that in water (200 nM), DY647 dimers
Procedure: Absorption spectra were recorded on a Shimadzu UV-2700i spectrophotometer and fluorescence spectra on a Horiba Fluoromax 4 spectrofluorometer. Fluorescence emission spectra were systematically recorded at 600 nm excitation wavelength at 20° C. All fluorescence spectra were corrected for instrumental effects. Fluorescence quantum yields (QY) were measured using DID in MeOH as a reference (QY=33%).^[ref] Turn-ON were calculated as a ratio of QY of compounds in EtOH to QY in water. • Ref I. Texier, et al., J. Biomed. Opt. 2009, 14, 054005.

[2] = Absorption and fluorescence spectroscopy, Cy5.5 dimers (Examples 2 and 3); settings: for λem, position of the emission maximum: excitation 630 nm
Procedure: (§1) Absorption spectra were recorded on a Shimadzu UV-2700i spectrophotometer and fluorescence spectra on a Horiba Fluoromax 4 spectrofluorometer. Fluorescence emission spectra were systematically recorded at 630 nm excitation wavelength at 20° C. All fluorescence spectra were corrected for instrumental effects. Fluorescence quantum yields (QY) were measured using Rhodamine 800 in EtOH as a reference (QY=25%).^[ref] Turn-ON were calculated as a ratio of OY of compounds in EtOH to OY in water. • Ref A. Alessi, M. Salvalaggio, G. Ruzzon, J. Lumin. 2013, 134, 385-389. DY647 Dimers
as §1, with “QY” for “OY”

[3] = Absorption and fluorescence spectroscopy of mCy5.5-PEG and dCy5.5-PEG in solvents of different polarities (Example 1); settings: for λem, position of the emission maximum: excitation 630 nm, 20° C.; for Difference in QY between organic solvents and water (turn-on response): QY in organic solvents vs water; for Fluorescence maxima: in organic solvents
Text: All fluorescence spectra were corrected for instrumental effects. […] To confirm the formation of the intramolecular dimer, the absorption spectra of two dyes were compared. […] This new band can be assigned to the non-fluorescent intramolecular dimer of the H-aggregate type, which is highly favored in aqueous medium. […] As a consequence, dCy5.5-PEG presented excellent fluorogenic properties, with up to 140-fold higher QY in organic solvents than in water. […] As the absorption spectrum of dCy5.5-PEG in the open form (in MeOH) is the same as that of the cyanine 2, the extinction coefficient of the dimer should be ca double of the monomer. The extinction coefficient for the cyanine 2, was measured to be 222 000 M^−1 cm^−1 in MeOH, which allows estimation of the extinction coefficient for the dimer dCy5.5-PEG: 222 000 M^−1 cm^−1×2=444 000 M^−1 cm^−1. Then, given its strong QY (56% in DMF), dCy5.5-PEG appears to be one of the brightest fluorogenic NIR dyes reported to date.

SMILES: COCC[N+]1=C(/C=C/C=C/C=C2/N(CCCCCC(=O)NCCCC[C@H](NC(=O)CCCCCN3/C(=C/C=C/C=C/C4=[N+](CCOC)c5ccc(S(=O)(=O)O)cc5C4(C)C)C(C)(C)c4cc(S(=O)(=O)[O-])ccc43)C(=O)NCCOCCOCCNC(=O)CCC(=O)NCCOCCOCCNC(=O)CCC(=O)OC(C)(C)C)c3ccc(S(=O)(=O)[O-])cc3C2(C)C)C(C)(C)c2cc(S(=O)(=O)O)ccc21 [A]
QY, fluorescence quantum yield ([1]; Acetone): 3.4%
λabs, position of the absorption maximum ([1]; Acetone): 661 nm
λem, position of the emission maximum ([1]; Acetone): 684 nm
QY, fluorescence quantum yield ([1]; Acetonitrile): 19.8%
λabs, position of the absorption maximum ([1]; Acetonitrile): 656 nm
λem, position of the emission maximum ([1]; Acetonitrile): 678 nm
QY, fluorescence quantum yield ([1]; EtOH): 31.1%
λabs, position of the absorption maximum ([1]; EtOH): 654 nm
λem, position of the emission maximum ([1]; EtOH): 676 nm
QY, fluorescence quantum yield ([1]; H2O): 4.1%
λabs, position of the absorption maximum ([1]; H2O): 647 nm
λem, position of the emission maximum ([1]; H2O): 671 nm
QY, fluorescence quantum yield ([1]; MeOH): 28.2%
λabs, position of the absorption maximum ([1]; MeOH): 651 nm
λem, position of the emission maximum ([1]; MeOH): 673 nm
Fluorescence turn-on [1]: 7.6

SMILES: COCC[N+]1=C(/C=C/C=C/C=C2/N(CCCCCC(=O)NCCOCCOCCNC(=O)CCC(=O)NCCCC[C@H](NC(=O)CCC(=O)NCCOCCOCCNC(=O)CCCCCN3/C(=C/C=C/C=C/C4=[N+](CCOC)c5ccc(S(=O)(=O)O)cc5C4(C)C)C(C)(C)c4cc(S(=O)(=O)[O-])ccc43)C(=O)NCCOCCOCCNC(=O)CCC(=O)NCCOCCOCCNC(=O)CCC(=O)OC(C)(C)C)c3ccc(S(=O)(=O)[O-])cc3C2(C)C)C(C)(C)c2cc(S(=O)(=O)O)ccc21 [B]
QY, fluorescence quantum yield ([1]; Acetone): 0.4%
λabs, position of the absorption maximum ([1]; Acetone): 660 nm
λem, position of the emission maximum ([1]; Acetone): 683 nm
QY, fluorescence quantum yield ([1]; Acetonitrile): 6.6%
λabs, position of the absorption maximum ([1]; Acetonitrile): 658 nm
λem, position of the emission maximum ([1]; Acetonitrile): 677 nm
QY, fluorescence quantum yield ([1]; EtOH): 35.1%
λabs, position of the absorption maximum ([1]; EtOH): 653 nm
λem, position of the emission maximum ([1]; EtOH): 673 nm
QY, fluorescence quantum yield ([1]; H2O): 7.6%
λabs, position of the absorption maximum ([1]; H2O): 648 nm
λem, position of the emission maximum ([1]; H2O): 666 nm
QY, fluorescence quantum yield ([1]; MeOH): 33.0%
λabs, position of the absorption maximum ([1]; MeOH): 650 nm
λem, position of the emission maximum ([1]; MeOH): 673 nm
Fluorescence turn-on [1]: 4.6

SMILES: COCCOCCOCCOCCOCCOCCOCCOCC[N+]1=C(/C=C/C=C/C=C2/N(CCCCCC(=O)NCCOCCOCCNC(=O)CCC(=O)NCCCC[C@H](NC(=O)CCC(=O)NCCOCCOCCNC(=O)CCCCCN3/C(=C/C=C/C=C/C4=[N+](CCOCCOCCOCCOCCOCCOCCOCCOC)c5ccc6ccccc6c5C4(C)C)C(C)(C)c4c3ccc3ccccc43)C(=O)NCCOCCOCCNC(=O)CCC(=O)NCCOCCOCCNC(=O)CCC(=O)OC(C)(C)C)c3ccc4ccccc4c3C2(C)C)C(C)(C)c2c1ccc1ccccc21 [Compound 5]
QY, fluorescence quantum yield ([2]; Acetone): 25.0%
λabs, position of the absorption maximum ([2]; Acetone): 683 nm
λem, position of the emission maximum ([2]; Acetone): 708 nm
QY, fluorescence quantum yield ([2]; Acetonitrile): 22.7%
λabs, position of the absorption maximum ([2]; Acetonitrile): 681 nm
λem, position of the emission maximum ([2]; Acetonitrile): 703 nm
QY, fluorescence quantum yield ([2]; EtOH): 26.5%
λabs, position of the absorption maximum ([2]; EtOH): 685 nm
λem, position of the emission maximum ([2]; EtOH): 708 nm
QY, fluorescence quantum yield ([2]; H2O): 0.4%
λabs, position of the absorption maximum ([2]; H2O): 630 nm
λem, position of the emission maximum ([2]; H2O): 708 nm
QY, fluorescence quantum yield ([2]; MeOH): 21.1%
λabs, position of the absorption maximum ([2]; MeOH): 682 nm
λem, position of the emission maximum ([2]; MeOH): 708 nm
Fluorescence turn-on ([2]; ratio of quantum yields in EtOH to that in water (200 nM), Cy5.5 dimers): 66

Extinction coefficient ([3]; in MeOH): 222 000 M^−1 cm^−1
SMILES: COCCOCCOCCOCCOCCOCCOCCOCC[N+]1=C(/C=C/C=C/C=C2/N(CCCCCC(=O)O)c3ccc4ccccc4c3C2(C)C)C(C)(C)c2c1ccc1ccccc21.[I-] [cyanine 2, 2-((1E,3E,5E)-5-(3-(5-carboxypentyl)-1,1-dimethyl-1,3-dihydro-2H-benzo[e]indol-2-ylidene)penta-1,3-dien-1-yl)-1,1-dimethyl-3-(2,5,8,11,14,17,20,23-octaoxapentacosan-25-yl)-1H-benzo[e]indol-3-ium iodide]

SMILES: C#CCNC(=O)CCNC(=O)CCC(=O)NCCOCCOCCNC(=O)CCC(=O)NCCOCCOCCNC(=O)[C@H](CCCCNC(=O)CCC(=O)NCCOCCOCCNC(=O)CCCCCN1/C(=C/C=C/C=C/C2=[N+](CCOCCOCCOCCOCCOCCOCCOCCOC)c3ccc4ccccc4c3C2(C)C)C(C)(C)c2c1ccc1ccccc21)NC(=O)CCC(=O)NCCOCCOCCNC(=O)CCCCCN1/C(=C/C=C/C=C/C2=[N+](CCOCCOCCOCCOCCOCCOCCOCCOC)c3ccc4ccccc4c3C2(C)C)C(C)(C)c2c1ccc1ccccc21.O=C([O-])C(F)(F)F.O=C([O-])C(F)(F)F [dCy5.5-PEG]
QY, fluorescence quantum yield ([3]; 1,4-Dioxane): 28%
λabs, position of the absorption maximum ([3]; 1,4-Dioxane): 689 nm
λem, position of the emission maximum ([3]; 1,4-Dioxane): 718 nm
QY, fluorescence quantum yield ([3]; DMF): 56%
λabs, position of the absorption maximum ([3]; DMF): 685 nm
λem, position of the emission maximum ([3]; DMF): 709 nm
QY, fluorescence quantum yield ([3]; EtOH): 26%
λabs, position of the absorption maximum ([3]; EtOH): 686 nm
λem, position of the emission maximum ([3]; EtOH): 710 nm
QY, fluorescence quantum yield ([3]; MeOH): 26%
λabs, position of the absorption maximum ([3]; MeOH): 682 nm
λem, position of the emission maximum ([3]; MeOH): 705 nm
Difference in QY between organic solvents and water (turn-on response) [3]: up to 140 fold
QY, fluorescence quantum yield ([3]; Water): 0.4%
λabs, position of the absorption maximum ([3]; Water): 629 nm
λem, position of the emission maximum ([3]; Water): 700 nm
Fluorescence maxima [3]: around 710 nm
Extinction coefficient, estimation for the dimer ([3]; open form (in MeOH), double of cyanine 2): 444 000 M^−1 cm^−1

SMILES: C#CCNC(=O)CCNC(=O)CCC(=O)NCCOCCOCCNC(=O)CCC(=O)NCCOCCOCCNC(=O)CCC(=O)NCCOCCOCCNC(=O)CCCCCN1/C(=C/C=C/C=C/C2=[N+](CCOCCOCCOCCOCCOCCOCCOCCOC)c3ccc4ccccc4c3C2(C)C)C(C)(C)c2c1ccc1ccccc21.O=C([O-])C(F)(F)F [mCy5.5-PEG]
QY, fluorescence quantum yield ([3]; 1,4-Dioxane): 59%
λabs, position of the absorption maximum ([3]; 1,4-Dioxane): 689 nm
λem, position of the emission maximum ([3]; 1,4-Dioxane): 712 nm
QY, fluorescence quantum yield ([3]; DMF): 50%
λabs, position of the absorption maximum ([3]; DMF): 686 nm
λem, position of the emission maximum ([3]; DMF): 709 nm
QY, fluorescence quantum yield ([3]; EtOH): 34%
λabs, position of the absorption maximum ([3]; EtOH): 686 nm
λem, position of the emission maximum ([3]; EtOH): 709 nm
QY, fluorescence quantum yield ([3]; MeOH): 32%
λabs, position of the absorption maximum ([3]; MeOH): 681 nm
λem, position of the emission maximum ([3]; MeOH): 705 nm
Difference in QY between organic solvents and water (turn-on response) [3]: < 2.7 fold
QY, fluorescence quantum yield ([3]; Water): 22%
λabs, position of the absorption maximum ([3]; Water): 679 nm
λem, position of the emission maximum ([3]; Water): 700 nm
Fluorescence maxima [3]: around 710 nm
Absorption maxima ([3]; in water and in MeOH): around 680 nm
